From patent US8034778B2, “Neuroprotective compounds and uses thereof” (Ever Neuro Pharma GmbH, priority 2006, dated 2011)
Where two headings read alike, the source gives them in different places. Residues, ends and D or L forms follow the SMILES beside them. No end group written: not given here.

System: telencephalon neurons from 9-day-old chicken embryos (cortical neurons)
Assay type: cell-based
Description: 1.1.2. Assay Conditions: • Assay: 2% low serum cell culture assay • Cell source: telencephalon neurons from 9-day-old chicken embryos (Lohman Brown hybrid) • Nutrition medium: EMEM with 1 g glucose/l, 2% FCS, 0.01% gentamycin sulfate and 2 mM L-glutamine • Group size: 4 independent experiments were performed (n =8 for DLHW (SEQ ID NO:2), NIVTPR (SEQ ID NO:3), HGFLPR (SEQ ID NO:4), NMVPFPR (SEQ ID NO:5) and the test matrix) • Evaluation of the effects: • MTT viability assay; absorbance (OD) measured with a plate reader • Duration of one single experiment: • 8 days
(§1) 2.2.1.1. Test Item (DLHW) (SEQ ID NO:2): • Vehicle for dilution: test matrix (6.18 mg/ml NaCl and 0.35 mg/ml KCl) • Application mode: once at the 1st day • Application period: for the whole experiment, i.e. 8 days, from 1st day onwards • Concentrations: 5.6, 11.25, 22.5, 45, 90, 180, 360 and 720 μg/ml • Administration volume: 0.625, 1.25, 2.5, 5, 10, 20, 40, 80 μl/ml medium
as §1, with “2.2.1.2.” for “2.2.1.1.”, “(NIVTPR)” for “(DLHW)”, “NO:3):” for “NO:2):”
as §1, with “2.2.1.3.” for “2.2.1.1.”, “(HGFLPR)” for “(DLHW)”, “NO:4):” for “NO:2):”
as §1, with “2.2.1.4.” for “2.2.1.1.”, “(NMPFPR)” for “(DLHW)”, “NO:5):” for “NO:2):”
2.3. Assay Conditions • Cell culture assays: 2% low serum assay • Cell source: telencephalon neurons from 9-day-old chicken embryos (Lohman Brown hybrid) • Nutrition medium: EMEM with 1 g glucose/l, 2% FCS, 0.01% gentamycin sulfate and 2mM L-glutamine • Group size: 4 independent experiments were performed (n =8for DLHW (SEQ ID NO:2) ant and the test matrix; n =224 for controls) • Evaluation of the effects: MTT viability assay; absorbance (OD) measured with a plate reader • Duration of one single experiment: 8 days
The analytical procedure used in the present example is a 2% low serum assay using isolated avian cortical neurons. With this in vitro cell culture assay the neuroprotective and/or neurotrophic potential of compounds can be evaluated by determining the viability of living neurons after a distinct time period in culture. The method for measuring the amount of viable neurons is the MTT-assay.
To the isolated nerve cells the peptides or test matrix were added once, i.e. at the first day. The 8 concentrations comprising dose range was between 5.6, 11.25, 22.5, 45, 90, 180, 360 and 720 μg/ml medium; the volumes applied were 0.625, 1.25, 2.5, 5, 10, 20, 40, 80 μl/ml medium.
Neuronal viability of cultures was determined with the MTT-assay using a plate-reader (570 nm). The MTT-assay is a sensitive assay measuring the mitochondrial dehydrogenase activity in viable cells only. It is performed according to the method described by Mosmann, J. Immunol. Meth, 1983, 55-63. This assay is based on the reduction of yellow MTT (3-(4,5-dimethylthiazol-2-yl)-2,5,diphenyl tetrazolium bromide), to dark blue formazan crystals by mitochondrial dehydrogenases (succinate dehydrogenase). Since this reaction is catalysed in living cells only the assay can be used for the quantification of cell viability. […]

[1] = 5.6 μg/ml, added at 1DIV, 8 days
[2] = 11.25 μg/ml, added at 1DIV, 8 days
[3] = 22.5 μg/ml, added at 1DIV, 8 days
[4] = 45 μg/ml, added at 1DIV, 8 days
[5] = 90 μg/ml, added at 1DIV, 8 days
[6] = 180 μg/ml, added at 1DIV, 8 days
[7] = 360 μg/ml, added at 1DIV, 8 days
[8] = 720 μg/ml, added at 1DIV, 8 days
[9] = Lohman Brown hybrid, chicken, 8 days, 5.6 μg/ml
[10] = Lohman Brown hybrid, chicken, 8 days, 11.25 μg/ml
[11] = Lohman Brown hybrid, chicken, 8 days, 22.5 μg/ml
[12] = Lohman Brown hybrid, chicken, 8 days, 45 μg/ml
[13] = Lohman Brown hybrid, chicken, 8 days, 90 μg/ml
[14] = Lohman Brown hybrid, chicken, 8 days, 180 μg/ml
[15] = Lohman Brown hybrid, chicken, 8 days, 360 μg/ml
[16] = Lohman Brown hybrid, chicken, 8 days, 720 μg/ml

Compound | viability of cortical neurons, MTT, mean optical density (OD) [1] [OD] | viability of cortical neurons, MTT, mean optical density (OD) [2] [OD] | viability of cortical neurons, MTT, mean optical density (OD) [3] [OD] | viability of cortical neurons, MTT, mean optical density (OD) [4] [OD] | viability of cortical neurons, MTT, mean optical density (OD) [5] [OD] | viability of cortical neurons, MTT, mean optical density (OD) [6] [OD] | viability of cortical neurons, MTT, mean optical density (OD) [7] [OD] | viability of cortical neurons, MTT, mean optical density (OD) [8] [OD] | viability of cortical neurons, mean in % (control is 100%) [9] [%] | viability of cortical neurons, mean in % (control is 100%) [10] [%] | viability of cortical neurons, mean in % (control is 100%) [11] [%] | viability of cortical neurons, mean in % (control is 100%) [12] [%] | viability of cortical neurons, mean in % (control is 100%) [13] [%] | viability of cortical neurons, mean in % (control is 100%) [14] [%] | viability of cortical neurons, mean in % (control is 100%) [15] [%] | viability of cortical neurons, mean in % (control is 100%) [16] [%] | also measured
CC(C)C[C@H](NC(=O)[C@@H](N)CC(=O)O)C(=O)N[C@@H](Cc1c[nH]cn1)C(=O)N[C@@H](Cc1c[nH]c2ccccc12)C(=O)O [DLHW] (H-DLHW-OH; N-terminus and C-terminus assumed) | 0.062 | 0.062 | 0.085 | 0.136 | 0.217 | 0.272 | 0.254 | 0.257 | 97.85 | 97.68 | 134.51 | 213.12 | 341.82 | 429.54 | 401.23 | 406.75 | maximum effect (viability, control 100%) [15]: 430%; effect beyond control (added at 1DIV, MTT method): 430%; effective dose range (added at 1DIV, MTT method): 45 to 702 µg/mL; maximum effect in % (added at 1DIV, MTT method): 430%; most effectice concentration (added at 1DIV, MTT method): 180 µg/mL; effect above the control level (in higher concentrations (than that of the maximum effect)): ~300%
HGFLPR [HGFLPR] | 0.068 | 0.069 | 0.069 | 0.067 | 0.070 | 0.067 | 0.064 | 0.058 | 100.07 | 101.16 | 101.16 | 98.95 | 102.25 | 99.14 | 94.53 | 85.71 | –
NIVTPR [NIVTPR] | 0.068 | 0.069 | 0.068 | 0.068 | 0.066 | 0.064 | 0.060 | 0.058 | 98.92 | 100.32 | 98.70 | 98.75 | 95.12 | 92.28 | 86.60 | 83.13 | –
NMVPFPR [NMVPFPR] | 0.061 | 0.060 | 0.057 | 0.057 | 0.056 | 0.055 | 0.055 | 0.057 | 98.06 | 95.77 | 90.76 | 90.55 | 89.54 | 87.76 | 87.79 | 91.24 | –
